The record followed here is ChEMBL document CHEMBL1156900, “Synthesis and anti-influenza virus activity of dihydrofuran-fused perhydrophenanthrenes with a benzyloxy-type side-chain” (2010).

SMILES strings stand for the structures. Activity calls are given as the source filed them. No cut-off for these calls is given here.

The subject of one test is H3N2 subtype. The experiment in a line: Antiviral activity against influenza A virus A/Aichi/2/68 (H3N2) infected in MDCK cells at 10 uM by plaque titration assay relative to control.
Conditions: not given
Type of test: functional, A/Aichi/2/1968(H3N2).
In turn, `N#C[C@]12CCC3(OCCO3)C3=CO[C@H](Cc4cc(-c5ccccc5)ccc41)[C@@H]32` showed an Activity of 70%.
Compound `N#C[C@]12CCC3(OCCO3)C3=CO[C@H](Cc4cc(OCc5ccccc5)ccc41)[C@@H]32` had an Activity of 30%.
Still for that read-out and setting: next, `N#C[C@]12CCC3(OCCO3)C3=CO[C@H](Cc4cc(OCc5cc(F)cc(F)c5)ccc41)[C@@H]32`: 30%; `N#C[C@]12CCC3(OCCO3)C3=CO[C@H](Cc4cc(-c5c(F)cc(F)cc5F)ccc41)[C@@H]32`: 70%.

Still in this test, the particulars now being: A/Aichi/2/1968(H3N2).
For `N#C[C@]12CCC3(OCCO3)C3=CO[C@H](Cc4cc(OC(F)(F)F)ccc41)[C@@H]32`, the outcome was Active.
As to `N#C[C@]12CCC3(OCCO3)C3=CO[C@H](Cc4cc(OS(=O)(=O)C(F)(F)F)ccc41)[C@@H]32`, the result was inactive.
Same read-out and setting: next, `N#C[C@]12CCC3(OCCO3)C3=CO[C@H](Cc4cc(OCc5ccccn5)ccc41)[C@@H]32`: “Active”; `N#C[C@]12CCC3(OCCO3)C3=CO[C@H](Cc4cc(OCc5cccnc5)ccc41)[C@@H]32`: “Active”; `N#C[C@]12CCC3(OCCO3)C3=CO[C@H](Cc4cc(OCc5ccncc5)ccc41)[C@@H]32`: “Active”.
Still for that read-out and setting: next, `N#C[C@]12CCC3(OCCO3)C3=CO[C@H](Cc4cc(OCc5ccc(COc6ccc7c(c6)C[C@H]6OC=C8[C@H]6[C@@]7(C#N)CCC86OCCO6)cc5)ccc41)[C@@H]32`: “Active”.
